We go through one compound from patent US12366579B2, “Sulfur-heterocycle exchange chemistry and uses thereof” (University of Virginia Patent Foundation, priority 2019, dated 2025).

The nature of data set [1]: HPLC assay, p-cresol reactivity against a sulfonyl probe mixture. Particulars: TMG 1.1 equivalents, 0° C. The data set is classed as physicochemical. The procedure: (§1) The following reagents were prepared and kept at 0° C. prior to use: 0.1 M solution of caffeine in acetonitrile (ACN), 1.0 M solution of n-butylamine, p-cresol, tetramethylguanidine (TMG), acetic acid in ACN, and 10 mM solution of the probes in a mixture of DMF-ACN (v/v=10:90) are made.
(i) p-Cresol reactivity against a probe mixture: A solution of p-cresol (16.5 μmol, 3.3 eq) was premixed with 1.1, 2.2, or 3.3 eq of TMG. To initiate the reaction, the p-cresol/TMG solution was added to a sulfonyl probe mixture of HHS-475/HHS-482/HHS-SF-1 (500 μL, 5 μmol, 1.0 eq each) and the reaction was kept at 0° C. The reaction progress was monitored by taking out a 50.0 μL aliquot of the reaction mixture at various time points followed by addition of a 10 μL quenching solution of acetic acid (0.5 M final, 5.0 μmol) and the internal caffeine standard (0.05 M final, 0.5 μmol). Sample (1.0 μL) was injected and analyzed by reverse-phase HPLC on a Shimadzu 1100 Series spectrometer (Shimadzu, Kyoto, Japan) with UV detection at 254 nm. Reaction progress was evaluated by monitoring consumption of sulfonyl probes because all probes generate a shared p-cresol and n-butylamine product. Chromatographic separation was performed using a Phenomenex Kinetex C18 column (2.6 μm, 50 mm×4.6 mm, Phemonenex, Torrance, California, United States of America). […]

Data set [2] can be described thus: HPLC reactivity assay with glutathione (GSH stability). Particulars: 5×GSH, basic conditions (TMG). It is filed as physicochemical. The procedure:
Glutathione (GSH) adduction to compounds is a mechanism of metabolism for compounds administered to animals and humans. Accordingly, an HPLC reactivity assay^72 was performed to evaluate whether sulfonyl-triazoles (HHS-475) react with GSH. HHS-475 (see Example 1) was used as an exemplary SuTEx compound. Initially, the HPLC assay was used to monitor the rapid reaction of HHS-475 with the model nucleophile p-cresol (as a mimic of the tyrosine side chain) under basic conditions (TMG). […] The 5×GSH was used because GSH is typically found at high concentrations in vivo.

For another data set, the system named is HEK293T, Jurkat cells. Briefly: Live cell chemical proteomic profiling with SuTEx probes. The data set is classed as cell-based, human. To be noted: 100 μM, 2 hr, 37° C.; membrane and soluble fractions; both probes. The procedure:
Cells grown to ˜90% confluency in 10 cm plates were treated with DMSO vehicle or sulfonyl-triazole probe (10 μL of 1000×DMSO stock) in serum-free media for the indicated concentrations and times at 37° C. with 5% CO2. After treatment, cells were washed with cold PBS twice before harvesting and preparation for gel-based chemical proteomic evaluation as described above. For LC-MS studies, protein concentrations were normalized to 2.3 mg/mL and 432 μL (for 1 mg final protein amount) were used for sample preparation as detailed below.
Proteomes were diluted to 2.3 mg/mL in PBS and sample aliquots (432 μL) were treated with sulfonyl-triazole or -fluoride probes at the indicated concentrations (5 μL, 100× stock in DMSO), mixed gently and incubated for 1 h at room temperature. Probe-modified proteomes were subjected to CuAAC conjugation to desthiobiotin-PEG3-azide (10 μL of 10 mM stock in DMSO; final concentration of 200 μM) using TCEP (10 μL of fresh 50 mM stock in water; 1 mM final concentration), TBTA ligand (33 μL of a 1.7 mM 4:1 t-butanol/DMSO stock, 100 μM final concentration), and CuSO4 (10 μL of 50 mM stock, 1 mM final concentration). Samples were mixed by vortexing and then incubated for 1 h at room temperature. Excess reagents were removed by chloroform-methanol extraction as previously described^51. […]

Data set [3] is described as follows: HPLC assay, n-butylamine reactivity against a sulfonyl probe mixture. It is filed as physicochemical. Particulars: TMG 3.3 equivalents. The procedure:
as §1
(ii) n-Butylamine reactivity against a probe mixture: Reactivity of sulfonyl probes against n-butylamine (3.3 eq) was performed as described above except the amount of TMG was fixed at 3.3 eq.

Molecules are shown by their SMILES.

As to `C#CCNC(=O)c1ccc(S(=O)(=O)n2cncn2)cc1` [HHS-475, 4-((1H-1,2,4-Triazol-1-yl)sulfonyl)-N-(prop-2-yn-1-yl)benzamide], the “time to consumption of probe by p-cresol” value in data set [1] was at most 30 min. The “reaction with GSH” value in data set [2] is reported as “negligible reaction”. In the data set on HEK293T, Jurkat cells, the “distinct tyrosine sites measured in live cell studies, in total per cell line” value is reported as ~3,500 sites. The “time to complete reaction with n-butylamine” value in data set [3] turned out to be 6 h.
